According to patent publication US20180256673A1, “METHODS FOR TREATING FUNGAL INFECTIONS” (priority 2015, published 2018):
Values joined by “and” are separate entries in the source; they are usually repeats but may differ in a detail not shown here. Identical values can stand only once. Like-named read-outs stand apart in the source and are kept apart here. Starred links: 1 amine or outer side, 2 acyl side, 3 side chain; linkers in the order of their positions; H or OH if unused. Positions of bridges follow the written chain, without caps; N, C: chain ends. Non-standard residues stand in square brackets, D forms with d. Residues, ends and D or L forms follow the SMILES beside them. *: point of attachment. Orn(4R-OH,5R-OCH2CH2NMe3+) = C[N+](C)(C)CCO[C@@H](N[*:3])[C@H](O)C[C@H](N[*:1])C(=O)[*:2]; pTerphenylCO(4''-OnC5H11) = CCCCCOc1ccc(-c2ccc(-c3ccc(C(=O)*)cc3)cc2)cc1; hTyr(3S-OH,4S-OH) = N[C@H](C(=O)O)[C@H](O)[C@@H](O)c1ccc(O)cc1; Pro(3S-OH,4S-Me) = C[C@H]1CN[C@H](C(=O)O)[C@H]1O; Hyp = O=C(O)[C@@H]1C[C@@H](O)CN1

Tests used:
[1] = tested on: C. glabrata ATCC 90030, ATCC 2001; assay: Broth microdilution MIC (CLSI), Examples 3 and 4; conditions: Nakaseomyces glabratus
Protocol: Antifungal susceptibility testing. Candida strains were cultured aerobically at 35° C. on SDA plates or in RPMI 1640 broth (pH 7.0). […] MIC assays were performed in triplicate.

[2] = tested on: C. albicans vaginal isolates; assay: Susceptibility testing of VVC clinical isolates at pH 7 and 4 (CLSI M27-A3); assay type: cell-based, Candida albicans; conditions: for Number of isolates at MIC 0.06 μg/mL / Number of isolates at MIC 0.125 μg/mL / Number of isolates at MIC 0.25 μg/mL / Number of isolates at MIC 0.5 μg/mL / Number of isolates at MIC 0.03 μg/mL / Number of isolates at MIC […] / Number of isolates at MIC 1 μg/mL: 60 VVC isolates; for MIC90 / MIC: Candida albicans
Candida dubliniensis = assay: Broth microdilution of invasive fungal isolates (CLSI M27-A3/M38-A2); assay type: cell-based; conditions: 11 isolates
C. parapsilosis CP02 = assay type: cell-based, Candida parapsilosis
Protocol: (§1) Spontaneous mutant selection. […] Three individual colonies from each strain were used to start cultures in RPMI. […] One milliliter aliquots were spread onto SDA plates containing drug with sterile glass beads. Starting viable count was enumerated by triplicate plating of serial dilutions of the starting inoculum. […] Glycerol stocks of putative mutant colonies were stored at −80° C. […] Spontaneous mutation frequencies were calculated by dividing the number of resistant colonies on a given plate by the starting inoculum plated. A subset of mutants (weighted heavily towards those selected with CMP1) were then evaluated by MIC and sequencing of FKS gene hot spot regions.

[3] = tested on: Cryptococcus neoformans var. grubii; assay: Broth microdilution of invasive fungal isolates (CLSI M27-A3/M38-A2); assay type: cell-based; conditions: 19 isolates
[4] = tested on: C. glabrata ATCC 90030, ATCC 2001; assay type: cell-based, Candida glabrata; conditions: for Freq. (replicate mutation frequency): replicate plates 1-3, listed as CMP1; for Plate concentration: SDA, minimum concentration to cleanly inhibit growth
Protocol: as §1

CCCCCOc1ccc(-c2ccc(-c3ccc(C(=O)N[C@H]4C[C@@H](O)[C@@H](OCC[N+](C)(C)C)NC(=O)[C@@H]5[C@@H](O)[C@@H](C)CN5C(=O)[C@H]([C@@H](C)O)NC(=O)[C@H]([C@H](O)[C@@H](O)c5ccc(O)cc5)NC(=O)[C@@H]5C[C@@H](O)CN5C(=O)[C@H]([C@@H](C)O)NC4=O)cc3)cc2)cc1 [Compound 1] ({pTerphenylCO(4''-OnC5H11)}-[Orn(4R-OH,5R-OCH2CH2NMe3+)]T[Hyp][hTyr(3S-OH,4S-OH)]T[Pro(3S-OH,4S-Me)]; lactam 1-C)
MIC ([1]; ATCC2001|ATCC90030, ATCC 2001 spontaneous mutant, Fks2 HS1 R665G): 0.5 mg/L | MIC ([1]; ATCC2001|ATCC90030, ATCC 2001 spontaneous mutant, Fks2 HS1 S663F): 1 mg/L | MIC ([1]; ATCC2001|ATCC90030, ATCC 2001 spontaneous mutant, Fks2 HS1 ΔF659): 2 mg/L | MIC ([1]; ATCC2001|ATCC90030, ATCC 2001 spontaneous mutant, Fks2 HS2 R1378S): 0.25 mg/L | MIC ([1]; ATCC2001|ATCC90030, ATCC 90030 spontaneous mutant, Fks2 HS1 D666H): 0.25 mg/L | MIC ([1]; ATCC2001|ATCC90030, ATCC 90030 spontaneous mutant, Fks2 HS1 ΔF659): 2 mg/L | Number of isolates at MIC 0.06 μg/mL ([2]; 24 h, pH 4): 1 | Number of isolates at MIC 0.125 μg/mL ([2]; 24 h, pH 4): 33 | Number of isolates at MIC 0.25 μg/mL ([2]; 24 h, pH 4): 23 | Number of isolates at MIC 0.5 μg/mL ([2]; 24 h, pH 4): 3 | Number of isolates at MIC 0.03 μg/mL ([2]; 24 h, pH 7): 43 | Number of isolates at MIC 0.06 μg/mL ([2]; 24 h, pH 7): 10 | Number of isolates at MIC 0.125 μg/mL ([2]; 24 h, pH 7): 2 | Number of isolates at MIC […] ([2]; 24 h, pH 7): 5 | Number of isolates at MIC 0.125 μg/mL ([2]; 48 h, pH 4): 6 | Number of isolates at MIC 0.25 μg/mL ([2]; 48 h, pH 4): 16 | Number of isolates at MIC 0.5 μg/mL ([2]; 48 h, pH 4): 34 | Number of isolates at MIC 1 μg/mL ([2]; 48 h, pH 4): 4 | Number of isolates at MIC 0.03 μg/mL ([2]; 48 h, pH 7): 29 | Number of isolates at MIC 0.06 μg/mL ([2]; 48 h, pH 7): 16 | Number of isolates at MIC 0.125 μg/mL ([2]; 48 h, pH 7): 9 | Number of isolates at MIC 0.25 μg/mL ([2]; 48 h, pH 7): 1 | Number of isolates at MIC 0.5 μg/mL ([2]; 48 h, pH 7): 1 | Number of isolates at MIC 1 μg/mL ([2]; 48 h, pH 7): 2 | Number of isolates at MIC […] ([2]; 48 h, pH 7): 2 | MIC90 ([2]; 48 h, pH 4): 0.5 mg/L | MIC ([2]; 48 h, pH 4, fluconazole-resistant isolate 1, pH 4, 48 h, read-out: MIC): 0.5 mg/L | MIC ([2]; 48 h, pH 4, fluconazole-resistant isolate 2, pH 4): 0.125 mg/L | MIC ([2]; 48 h, pH 4, fluconazole-resistant isolate 3, pH 4, 48 h, read-out: MIC): 0.5 mg/L | MIC ([2]; 48 h, pH 4, fluconazole-resistant isolate 4, pH 4, 48 h, read-out: MIC): 0.25 mg/L | MIC ([2]; 48 h, pH 4, fluconazole-resistant isolate 6, pH 4, 48 h, read-out: MIC): 0.5 mg/L | MIC ([2]; 48 h, pH 4, fluconazole-resistant isolate 7, pH 4, 48 h, read-out: MIC): 0.5 mg/L | MIC ([2]; 48 h, pH 4, fluconazole-resistant isolate 9, pH 4, 48 h, read-out: MIC): 1 mg/L | MIC90 ([2]; 48 h, pH 7): 0.125 mg/L | MIC ([2]; 48 h, pH 7, fluconazole-resistant isolate 1, pH 7, 48 h, read-out: MIC): 0.03 mg/L | MIC ([2]; 48 h, pH 7, fluconazole-resistant isolate 2, pH 7): 0.25 mg/L | MIC ([2]; 48 h, pH 7, fluconazole-resistant isolate 3, pH 7, 48 h, read-out: MIC): 0.03 mg/L | MIC ([2]; 48 h, pH 7, fluconazole-resistant isolate 4, pH 7, 48 h, read-out: MIC): 0.06 mg/L | MIC ([2]; 48 h, pH 7, fluconazole-resistant isolate 5, pH 7): 0.125 mg/L | MIC ([2]; 48 h, pH 7, fluconazole-resistant isolate 6, pH 7, 48 h, read-out: MIC): 0.03 mg/L | MIC ([2]; 48 h, pH 7, fluconazole-resistant isolate 7, pH 7, 48 h, read-out: MIC): 0.03 mg/L | MIC ([2]; 48 h, pH 7, fluconazole-resistant isolate 8, pH 7): 0.125 mg/L | MIC ([2]; 48 h, pH 7, fluconazole-resistant isolate 9, pH 7, 48 h, read-out: MIC): 1 mg/L | MIC ([2]; 48 h, pH 7, fluconazole-resistant isolate 10, pH 7): 0.125 mg/L | MIC90 ([2]; 60 isolates, pH 4, 24 h, read-out: MIC90): 0.25 mg/L | MIC90 ([2]; 60 isolates, pH 7, 24 h, read-out: MIC90): 0.06 mg/L | Cumulative % of isolates inhibited at MIC 0.03 μg/mL (Candida dubliniensis): (54.5) % | Cumulative % of isolates inhibited at MIC 0.06 μg/mL (Candida dubliniensis): (90.9) % | Cumulative % of isolates inhibited at MIC 0.12 μg/mL (Candida dubliniensis): (100.0) % | Number of isolates inhibited at MIC 0.03 μg/mL (Candida dubliniensis): 6 | Number of isolates inhibited at MIC 0.06 μg/mL (Candida dubliniensis): 4 | Number of isolates inhibited at MIC 0.12 μg/mL (Candida dubliniensis): 1 | MIC50 (Candida dubliniensis; Candida dubliniensis, read-out: MIC50): 0.03 mg/L | MIC90 (Candida dubliniensis; Candida dubliniensis, read-out: MIC90): 0.06 mg/L | Median mutation frequency (C. parapsilosis CP02): 2.08E−08 | Plate concentration (C. parapsilosis CP02; SDA, minimum concentration to cleanly inhibit growth): 8 µg/mL | Freq. (replicate mutation frequency) (C. parapsilosis CP02; replicate plates 1-3, listed as CMP1): 2.08E−08 (2×) and 9.62E−09 | Cumulative % of isolates inhibited at MIC 8 μg/mL [3]: (31.6) % | Cumulative % of isolates inhibited at MIC >8 μg/mL [3]: (100.0) % | Number of isolates inhibited at MIC 8 μg/mL [3]: 6 | Number of isolates inhibited at MIC >8 μg/mL [3]: 13 | MIC50 ([3]; Cryptococcus neoformans, read-out: MIC50): 8 mg/L | MIC90 ([3]; Cryptococcus neoformans, read-out: MIC90): 8 mg/L | Median mutation frequency ([4]; ATCC 2001): 3.16E−08 | Freq. (replicate mutation frequency) ([4]; ATCC 2001): 3.16E−08 and 3.79E−08 and 1.17E−08 | Median mutation frequency ([4]; ATCC 90030): 1.35E−08 | Freq. (replicate mutation frequency) ([4]; ATCC 90030): 3.52E−08 and 1.26E−08 and 1.35E−08 | Plate concentration ([4]; ATCC 2001): 0.25 µg/mL | Plate concentration ([4]; ATCC 90030): 0.25 µg/mL
